The record followed here is US20250002527A1, “STEROID COMPOUND AND CONJUGATE THEREOF” (DUALITY BIOLOGICS (SUZHOU) CO., LTD., priority 2021, published 2025).

What all share (type): cell-based
For one assay, the system named is human PBMC cells. Nature of the assay: IFN-α secretion from PBMC under R848 stimulation (compounds). The following applies: R848 5 μM, 24 hours, mean ± standard deviation. Here is the method: The compounds of the present application were tested for their inhibitory effect on the production of peripheral blood monocytes. The peripheral blood monocytes were treated in vitro with the ligand-drug conjugate at different concentrations, and IFNα and TNFα generated by the peripheral blood monocytes were quantitatively detected after a certain time. The compounds of the present invention were evaluated for in-vitro activity.
The cryopreserved human PBMC cells were resuspended in a complete medium and counted, and the cell suspension was adjusted to 2.5×10*6 cells/mL with the culture medium. After the suspension was centrifuged to collect the cells the next day, the cells were resuspended using fresh culture medium. Test compounds were diluted to 4-fold final concentration in cell culture medium, 50 μL of the compounds were added into a 96-well cell plate, and 100 μL of diluted cells ([…]) were added into each well of the 96-well plate containing the compounds, followed by addition of 50 μL R848 to a final concentration of 5 μM. The cell plate was incubated at 37° C. with 5% CO2 for 24 hours. The supernatant was collected, and the TNF-α and IFN-α concentration levels in the supernatant were detected using an ELISA kit.
50 μL of biotinylated antibody working solution was added into each well. After mixing well, the plate was covered with the plate-sealing membrane and incubated at room temperature for 3 hours. […] The procedure was repeated for 3 times. 100 μL of Streptavidin-HRP working solution was added into each well. The plate was covered with the plate-sealing membrane and incubated at room temperature for 20 minutes. The plate was washed for 3 times, 100 μL of TMB liquid was added into each well, and the plate was incubated for 25 minutes at room temperature (18-25° C.) in the dark. The reaction was stopped by adding 100 μL stop solution rapidly to each well. The reading at a wavelength of 450 nm was detected by an M2e instrument within 10 minutes after termination.
The contents of TNF-α and IFN-α were calculated from the OD450 values.

For assay [1], the target named is T1, glucocorticoid receptor (Homo sapiens, UniProt P04150).
T1 construct: expressed in transfected cells; host or cells: HEK293
T1 sequence (P04150 1-777): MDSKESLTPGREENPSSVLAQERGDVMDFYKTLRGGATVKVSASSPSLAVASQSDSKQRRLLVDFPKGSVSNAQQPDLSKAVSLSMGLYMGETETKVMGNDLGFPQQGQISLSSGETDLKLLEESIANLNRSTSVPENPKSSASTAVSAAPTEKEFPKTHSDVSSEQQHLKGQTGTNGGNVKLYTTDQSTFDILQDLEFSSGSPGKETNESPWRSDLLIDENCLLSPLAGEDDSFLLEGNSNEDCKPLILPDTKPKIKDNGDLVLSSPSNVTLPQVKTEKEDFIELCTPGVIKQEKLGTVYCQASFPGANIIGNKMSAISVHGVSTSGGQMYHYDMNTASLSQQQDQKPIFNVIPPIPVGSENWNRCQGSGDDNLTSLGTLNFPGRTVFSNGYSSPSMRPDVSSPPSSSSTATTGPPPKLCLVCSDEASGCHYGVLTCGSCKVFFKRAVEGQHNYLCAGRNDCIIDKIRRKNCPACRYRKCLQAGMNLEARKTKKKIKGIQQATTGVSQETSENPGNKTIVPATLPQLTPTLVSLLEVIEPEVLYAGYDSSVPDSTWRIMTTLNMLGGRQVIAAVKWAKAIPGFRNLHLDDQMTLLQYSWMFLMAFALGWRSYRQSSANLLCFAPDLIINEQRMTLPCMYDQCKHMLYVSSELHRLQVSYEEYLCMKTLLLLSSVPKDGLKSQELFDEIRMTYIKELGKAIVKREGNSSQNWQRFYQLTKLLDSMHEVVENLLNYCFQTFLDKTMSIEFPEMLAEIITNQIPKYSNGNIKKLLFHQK
The experiment in a line: Measurement 2 of glucocorticoid receptor reporter gene GRE activity (HEK293 GRE cells). As to conditions: 24 hours.

The next assay deals with T2, ERα (Homo sapiens, UniProt P03372).
T2 sequence (P03372 311-547 limits assumed): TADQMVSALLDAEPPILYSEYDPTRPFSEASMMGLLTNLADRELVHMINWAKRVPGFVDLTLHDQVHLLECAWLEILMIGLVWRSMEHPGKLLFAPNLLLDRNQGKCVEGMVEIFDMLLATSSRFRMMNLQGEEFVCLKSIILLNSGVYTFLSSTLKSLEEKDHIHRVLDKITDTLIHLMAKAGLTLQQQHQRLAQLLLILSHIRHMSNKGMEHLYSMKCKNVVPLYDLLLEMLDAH
Nature of the assay: ERα luciferase reporter gene experiment. As to conditions: HEK293 transfected with pBIND-ERα. As to the method: (§1) HEK293 cells were cultured in DMEM+10% FBS medium in a carbon dioxide incubator humidified at 37° C. at 5% carbon dioxide.
(§2) • 1) HEK293 cells were trypsinized, and the HEK293 cell resuspension was adjusted to 200,000 cell/mL in medium (96 well plate: 100 μL/well). • 2) Transfection reagent mixtures were prepared according to the table below, mixed well and left at room temperature for 20 minutes.
(§3) • 3) The prepared transfection mixtures were added to 10 mL of the cell density-adjusted resuspension, mixed well by turning the mixtures upside down, and seeded into a 96-well plate at a volume of 100 μL/well. • 4) The 96-well plate was incubated in a humidified incubator at 37° C. and 5% carbon dioxide for 24 hours.
(§4) The test plate was detected using the Dual-Glo Luciferase Assay System kit from Promega, and the fluorescence signal of Firefly Luciferase and the fluorescence signal of Renilla Luciferase were read using Enspire, respectively.
(§5) Y is the agonism and X is the concentration of the compound.

The target of a further assay is T3, MR (Homo sapiens, UniProt P08235).
T3 construct: expressed in transfected cells; host or cells: HEK293
T3 sequence (P08235 1-984): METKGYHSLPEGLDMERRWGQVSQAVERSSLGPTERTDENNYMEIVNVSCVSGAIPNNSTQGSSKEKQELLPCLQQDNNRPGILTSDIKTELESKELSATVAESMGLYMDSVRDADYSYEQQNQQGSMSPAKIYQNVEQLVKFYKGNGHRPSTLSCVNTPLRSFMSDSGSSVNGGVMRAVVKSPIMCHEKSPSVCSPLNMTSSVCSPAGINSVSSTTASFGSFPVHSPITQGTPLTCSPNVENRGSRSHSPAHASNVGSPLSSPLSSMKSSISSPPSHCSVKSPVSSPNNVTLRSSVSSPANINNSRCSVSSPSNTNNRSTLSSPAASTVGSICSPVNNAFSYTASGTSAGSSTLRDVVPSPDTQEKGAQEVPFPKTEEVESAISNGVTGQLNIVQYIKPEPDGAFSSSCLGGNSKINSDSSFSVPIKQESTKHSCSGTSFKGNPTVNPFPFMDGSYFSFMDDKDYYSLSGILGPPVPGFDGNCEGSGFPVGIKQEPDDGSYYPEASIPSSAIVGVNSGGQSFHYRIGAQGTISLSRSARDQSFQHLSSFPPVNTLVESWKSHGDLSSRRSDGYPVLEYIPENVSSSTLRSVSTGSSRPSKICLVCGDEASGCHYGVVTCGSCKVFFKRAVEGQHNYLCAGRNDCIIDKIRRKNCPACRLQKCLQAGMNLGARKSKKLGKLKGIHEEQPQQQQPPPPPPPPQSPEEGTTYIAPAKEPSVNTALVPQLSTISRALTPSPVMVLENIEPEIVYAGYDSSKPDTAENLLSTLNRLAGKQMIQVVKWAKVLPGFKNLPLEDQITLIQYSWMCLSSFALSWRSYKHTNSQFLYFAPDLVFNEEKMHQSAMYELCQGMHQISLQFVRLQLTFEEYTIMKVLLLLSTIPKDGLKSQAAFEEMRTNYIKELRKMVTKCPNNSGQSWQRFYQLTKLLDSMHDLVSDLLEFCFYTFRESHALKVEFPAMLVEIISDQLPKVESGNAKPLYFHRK
Nature of the assay: MR luciferase reporter gene experiment. The following applies: HEK293 transfected with pBIND-MR. As to the method:
as §1, §2, §3, §4, §5

The target in assay [2] is T1, glucocorticoid receptor. Nature of the assay: Measurement 1 of glucocorticoid receptor reporter gene GRE activity. As to conditions: HEK293 transfected with pGL5 and pBIND-GR, 24 hours. As to the method: as §1
The prepared transfection mixtures were added to 10 mL of the cell density-adjusted resuspension, mixed well by turning the mixtures upside down, and seeded into a 96-well plate at a volume of 100 μL/well.
as §4
The final measurement value was a normalized value “F/R” obtained by dividing the Firefly Luciferase fluorescent signal by the Renilla Luciferase fluorescent signal.
The data were copied and pasted into Excel, and the activation rate was obtained through an equation.
The data were imported into MS Excel and subjected to curve fitting by using XLFit excel add-in version 5.4.0.8 to obtain an EC50 value.
as §5

As for `C[C@]12C=CC(=O)C=C1CC[C@@H]1[C@@H]2[C@@H](O)C[C@@]2(C)[C@H]1C[C@H]1O[C@@H](c3ccc(Cc4ccc(CO)c(N)c4)cc3)O[C@]12C(=O)CO` [Compound 6], the “IFN-α secretion (pg/mL) from PBMC under R848 stimulation” value in the assay on human PBMC cells (compound 4 nM) was 99.8 ± +5.7 pg/mL; with human PBMC cells (compound 20 nM), 45.9 ± 45.9 pg/mL; in the assay on human PBMC cells (compound 100 nM), 6.9 ± 6.9 pg/mL. Further, the EC50 at glucocorticoid receptor [1] stood at 0.12 nM.
`C[C@]12C=CC(=O)C=C1CC[C@@H]1[C@@H]2[C@@H](O)C[C@@]2(C)[C@H]1C[C@H]1O[C@@H](c3ccc(Cc4cccc(CO)c4)cc3)O[C@]12C(=O)CO` [Compound 3]: the EC50 at ERα and at MR was over 1000 nM throughout.
On glucocorticoid receptor [2], `C[C@]12C=CC(=O)C=C1CC[C@@H]1[C@@H]2[C@@H](O)C[C@@]2(C)[C@H]1C[C@H]1O[C@H](c3ccc(Cc4ccc(CO)cc4)cc3)O[C@]12C(=O)CO` [Compound 4S] showed an EC50 of 1.42 nM.
